Each structure is given as a SMILES string. “And” between values parts separate entries of the source, which are not always exact repeats. Equal entries are not always repeated. Where only a bound is given, the exact number is not on record here.

Assay [1] addresses T1, Adenosine receptor A3 (Homo sapiens, UniProt P0DMS8).
T1 sequence (P0DMS8 whole entry): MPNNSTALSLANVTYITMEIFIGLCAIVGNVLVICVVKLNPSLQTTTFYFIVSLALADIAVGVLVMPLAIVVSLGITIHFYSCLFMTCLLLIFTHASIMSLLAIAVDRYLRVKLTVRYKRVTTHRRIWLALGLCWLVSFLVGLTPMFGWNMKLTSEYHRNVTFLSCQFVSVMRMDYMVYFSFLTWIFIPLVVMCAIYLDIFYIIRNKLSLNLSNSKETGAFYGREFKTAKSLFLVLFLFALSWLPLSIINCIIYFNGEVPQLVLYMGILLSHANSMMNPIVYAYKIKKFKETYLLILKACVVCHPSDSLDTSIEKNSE

In assay [2] the target is T2, Alpha-2A adrenergic receptor (Homo sapiens, UniProt P08913).
T2 sequence (P08913 whole entry): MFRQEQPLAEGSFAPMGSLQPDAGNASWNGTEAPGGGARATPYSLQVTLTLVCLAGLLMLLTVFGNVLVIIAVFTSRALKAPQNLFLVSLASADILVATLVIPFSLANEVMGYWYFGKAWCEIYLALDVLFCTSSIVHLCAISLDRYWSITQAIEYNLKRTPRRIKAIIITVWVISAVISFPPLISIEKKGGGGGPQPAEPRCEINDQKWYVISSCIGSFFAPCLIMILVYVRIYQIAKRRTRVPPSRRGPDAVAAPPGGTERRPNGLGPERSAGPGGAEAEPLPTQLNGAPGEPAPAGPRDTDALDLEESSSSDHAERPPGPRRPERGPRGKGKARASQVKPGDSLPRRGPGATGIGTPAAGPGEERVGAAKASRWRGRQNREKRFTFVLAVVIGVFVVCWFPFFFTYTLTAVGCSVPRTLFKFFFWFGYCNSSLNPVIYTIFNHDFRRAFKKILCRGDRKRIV
In kind it is functional, cell-based.

Assay [3] has as its target T3, Cholecystokinin receptor type A (Homo sapiens, UniProt P32238).
T3 sequence (P32238 whole entry): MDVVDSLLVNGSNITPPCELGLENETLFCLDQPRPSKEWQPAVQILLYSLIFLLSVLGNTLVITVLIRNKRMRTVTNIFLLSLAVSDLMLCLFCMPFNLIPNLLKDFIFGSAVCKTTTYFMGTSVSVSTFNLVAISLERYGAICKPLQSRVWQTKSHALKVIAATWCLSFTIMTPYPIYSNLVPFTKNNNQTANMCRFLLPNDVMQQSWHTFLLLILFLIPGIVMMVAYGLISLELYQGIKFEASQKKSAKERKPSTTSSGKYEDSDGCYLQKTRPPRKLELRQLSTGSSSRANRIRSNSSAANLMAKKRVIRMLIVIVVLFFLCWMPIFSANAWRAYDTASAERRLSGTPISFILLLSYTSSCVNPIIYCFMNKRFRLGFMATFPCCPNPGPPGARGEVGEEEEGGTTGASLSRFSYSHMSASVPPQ

Assay [4] addresses T4, Muscarinic acetylcholine receptor M2 (Homo sapiens, UniProt P08172).
T4 sequence (P08172 whole entry): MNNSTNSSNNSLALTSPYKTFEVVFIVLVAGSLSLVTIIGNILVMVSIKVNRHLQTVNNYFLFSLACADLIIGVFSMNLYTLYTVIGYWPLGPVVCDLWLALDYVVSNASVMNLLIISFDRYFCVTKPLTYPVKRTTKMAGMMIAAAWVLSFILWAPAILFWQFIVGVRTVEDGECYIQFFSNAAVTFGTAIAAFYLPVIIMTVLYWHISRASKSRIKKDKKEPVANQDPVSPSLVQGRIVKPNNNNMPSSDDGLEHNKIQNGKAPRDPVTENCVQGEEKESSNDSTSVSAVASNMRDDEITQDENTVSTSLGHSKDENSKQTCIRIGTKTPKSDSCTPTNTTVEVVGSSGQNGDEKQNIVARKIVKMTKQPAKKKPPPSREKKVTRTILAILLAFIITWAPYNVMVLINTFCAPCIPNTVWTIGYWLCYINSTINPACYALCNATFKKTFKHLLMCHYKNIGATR
In kind it is functional, cell-based.

Assay [5] has as its target Glutamate receptor ionotropic, NMDA 1 (Rattus norvegicus, UniProt P35439).
Assay [6] addresses Histamine H2 receptor (Homo sapiens, UniProt P25021). It counts as functional, cell-based.
Assay [7] concerns the target 3',5'-cyclic-AMP phosphodiesterase 4D (Homo sapiens, UniProt Q08499). It counts as functional.
Assay [8] addresses T5, Equilibrative nucleoside transporter 1 (Homo sapiens, UniProt Q99808).
T5 sequence (Q99808 whole entry): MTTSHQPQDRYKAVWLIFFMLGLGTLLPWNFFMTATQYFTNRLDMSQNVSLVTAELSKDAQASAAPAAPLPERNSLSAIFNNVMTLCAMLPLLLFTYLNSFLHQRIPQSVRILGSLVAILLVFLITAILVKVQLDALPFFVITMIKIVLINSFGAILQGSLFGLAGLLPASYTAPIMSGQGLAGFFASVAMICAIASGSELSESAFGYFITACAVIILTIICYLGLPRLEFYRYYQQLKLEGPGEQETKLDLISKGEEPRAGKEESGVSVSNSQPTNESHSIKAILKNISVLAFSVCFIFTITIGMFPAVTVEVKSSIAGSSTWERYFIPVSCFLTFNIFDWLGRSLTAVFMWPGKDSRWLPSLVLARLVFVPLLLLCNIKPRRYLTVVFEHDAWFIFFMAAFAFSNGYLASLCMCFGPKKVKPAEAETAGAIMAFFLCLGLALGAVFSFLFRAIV

In assay [9] the target is T6, Thromboxane A2 receptor (Homo sapiens, UniProt P21731).
T6 sequence (P21731 whole entry): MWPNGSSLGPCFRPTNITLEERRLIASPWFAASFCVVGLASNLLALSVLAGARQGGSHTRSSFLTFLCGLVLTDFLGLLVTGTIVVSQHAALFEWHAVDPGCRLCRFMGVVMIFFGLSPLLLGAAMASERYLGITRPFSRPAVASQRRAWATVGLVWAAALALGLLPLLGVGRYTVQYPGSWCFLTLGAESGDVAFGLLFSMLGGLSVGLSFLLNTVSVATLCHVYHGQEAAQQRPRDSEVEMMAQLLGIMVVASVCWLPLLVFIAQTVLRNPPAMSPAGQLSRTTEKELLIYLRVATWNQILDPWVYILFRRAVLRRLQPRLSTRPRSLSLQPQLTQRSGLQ

Assay [10] concerns the target Sodium-dependent dopamine transporter (Homo sapiens, UniProt Q01959).
Assay [11] addresses Histamine H3 receptor (Homo sapiens, UniProt Q9Y5N1).
Also: assay procedure not described here.

Histamine H3 receptor, sequence (Q9Y5N1 whole entry): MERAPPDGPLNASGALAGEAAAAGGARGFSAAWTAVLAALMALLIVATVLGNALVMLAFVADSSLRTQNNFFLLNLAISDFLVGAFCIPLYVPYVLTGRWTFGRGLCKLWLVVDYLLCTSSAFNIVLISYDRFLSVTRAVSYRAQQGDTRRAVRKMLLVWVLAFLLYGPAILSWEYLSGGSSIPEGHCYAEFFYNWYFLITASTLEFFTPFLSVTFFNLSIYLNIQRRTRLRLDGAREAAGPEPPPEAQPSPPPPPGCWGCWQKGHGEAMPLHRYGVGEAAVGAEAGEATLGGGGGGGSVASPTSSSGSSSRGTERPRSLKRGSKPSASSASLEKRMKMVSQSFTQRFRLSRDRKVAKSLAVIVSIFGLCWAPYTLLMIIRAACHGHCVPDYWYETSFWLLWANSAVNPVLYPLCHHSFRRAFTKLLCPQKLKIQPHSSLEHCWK
Sodium-dependent dopamine transporter, sequence (Q01959 whole entry): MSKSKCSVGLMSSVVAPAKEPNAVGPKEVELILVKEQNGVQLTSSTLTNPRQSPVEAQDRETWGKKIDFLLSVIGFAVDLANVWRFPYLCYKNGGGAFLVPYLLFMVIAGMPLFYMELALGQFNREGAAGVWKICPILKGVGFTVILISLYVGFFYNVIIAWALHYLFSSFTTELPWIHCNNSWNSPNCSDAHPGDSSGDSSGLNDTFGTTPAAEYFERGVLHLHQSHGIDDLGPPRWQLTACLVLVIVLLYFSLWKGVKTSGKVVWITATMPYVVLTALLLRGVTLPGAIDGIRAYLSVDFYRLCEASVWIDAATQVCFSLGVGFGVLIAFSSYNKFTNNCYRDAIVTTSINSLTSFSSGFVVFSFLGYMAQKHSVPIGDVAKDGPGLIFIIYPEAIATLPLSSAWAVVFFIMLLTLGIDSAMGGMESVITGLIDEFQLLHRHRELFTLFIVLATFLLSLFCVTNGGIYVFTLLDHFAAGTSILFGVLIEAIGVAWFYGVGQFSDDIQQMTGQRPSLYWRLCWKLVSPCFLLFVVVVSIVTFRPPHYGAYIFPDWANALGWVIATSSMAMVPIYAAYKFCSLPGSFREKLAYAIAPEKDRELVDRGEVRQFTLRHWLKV
3',5'-cyclic-AMP phosphodiesterase 4D, sequence (Q08499 whole entry): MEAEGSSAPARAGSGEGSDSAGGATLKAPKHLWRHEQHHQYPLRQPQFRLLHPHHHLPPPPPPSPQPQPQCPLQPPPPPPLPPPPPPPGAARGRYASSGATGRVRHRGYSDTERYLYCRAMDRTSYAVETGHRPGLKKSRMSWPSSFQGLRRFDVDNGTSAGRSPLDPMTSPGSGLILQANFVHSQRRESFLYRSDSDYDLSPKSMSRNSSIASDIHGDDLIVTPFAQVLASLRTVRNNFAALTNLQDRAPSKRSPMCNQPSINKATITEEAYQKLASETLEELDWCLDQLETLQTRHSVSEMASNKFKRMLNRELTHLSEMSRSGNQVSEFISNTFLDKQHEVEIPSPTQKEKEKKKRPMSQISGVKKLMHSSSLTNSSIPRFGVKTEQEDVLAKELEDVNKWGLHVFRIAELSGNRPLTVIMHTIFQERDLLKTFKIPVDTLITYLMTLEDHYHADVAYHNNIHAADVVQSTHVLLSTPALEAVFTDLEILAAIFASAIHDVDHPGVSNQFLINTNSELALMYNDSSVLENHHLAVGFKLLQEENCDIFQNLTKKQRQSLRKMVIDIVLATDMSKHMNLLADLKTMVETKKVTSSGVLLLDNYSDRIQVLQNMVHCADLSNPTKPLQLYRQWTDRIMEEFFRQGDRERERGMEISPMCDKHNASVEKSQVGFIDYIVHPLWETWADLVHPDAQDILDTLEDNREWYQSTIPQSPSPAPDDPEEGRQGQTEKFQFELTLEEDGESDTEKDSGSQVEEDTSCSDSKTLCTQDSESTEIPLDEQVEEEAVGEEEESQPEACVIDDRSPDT
Histamine H2 receptor, sequence (P25021 whole entry): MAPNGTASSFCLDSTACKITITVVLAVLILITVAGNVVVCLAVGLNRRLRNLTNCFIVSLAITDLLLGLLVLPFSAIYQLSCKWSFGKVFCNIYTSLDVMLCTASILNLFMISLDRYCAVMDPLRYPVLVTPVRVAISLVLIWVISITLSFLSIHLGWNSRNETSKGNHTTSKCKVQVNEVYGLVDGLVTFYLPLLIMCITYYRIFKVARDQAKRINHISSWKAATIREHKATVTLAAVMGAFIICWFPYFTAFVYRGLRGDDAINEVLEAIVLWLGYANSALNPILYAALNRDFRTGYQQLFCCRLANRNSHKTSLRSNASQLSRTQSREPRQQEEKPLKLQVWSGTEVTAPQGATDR

In the case of `CC(CCc1ccc(O)cc1)NCCc1ccc(O)c(O)c1` (stereo unspecified) [DOBUTAMINE], the AC50 is 22.9 µM in assay [1]; over 30 µM in [2]; over 30 µM in [3]; over 30 µM in [4]; over 30 µM in assay [5]; over 10 µM in [6]. Further, the AC50 in [7] was over 30 µM; in [8] it was over 30 µM; in [9], over 30 µM; in assay [10] it was 0.897 µM; in assay [11], over 30 µM.

For `CCOC(=O)c1cncn1[C@H](C)c1ccccc1` [ETOMIDATE], the AC50 in assay [1], in assay [2], in assay [3], in assay [4], in assay [5] and in [6] was over 10 µM throughout. The AC50 is over 30 µM in assay [7]; over 10 µM in assay [8]; over 10 µM in assay [9]; over 10 µM in assay [10]; over 10 µM in assay [11].

For `CCC(=O)O[C@]1(C(=O)SCF)[C@H](C)C[C@H]2[C@@H]3C[C@H](F)C4=CC(=O)C=C[C@]4(C)[C@@]3(F)[C@@H](O)C[C@@]21C` [FLUTICASONE PROPIONATE], the AC50 is over 30 µM in assay [1]; over 30 µM in assay [2]; over 30 µM in assay [3]; over 30 µM in assay [4]; over 30 µM in assay [5]; over 10 µM in assay [6]. Besides, the AC50 in assay [7], in assay [8], in [9], in assay [10] and in assay [11] was over 30 µM throughout.

As for `C[C@]12CCC(=O)C(O)=C1CC[C@@H]1[C@@H]2CC[C@]2(C)C(=O)CC[C@@H]12` [FORMESTANE], the AC50 in assay [1], in assay [2], in [3], in assay [4], in assay [5] and in [6] was over 30 µM throughout. For the same molecule, the AC50 in assay [7], in [8], in assay [9], in assay [10] and in [11] was over 30 µM in each case.

With `CCC1(c2ccccc2)CCC(=O)NC1=O` (stereo unspecified) [GLUTETHIMIDE], the AC50 in [1], in assay [2], in [3], in assay [4], in assay [5] and in [6] was over 10 µM throughout. The AC50 in [7] is over 30 µM; in assay [8] it was over 10 µM; in assay [9], over 10 µM; in [10] it was over 10 µM; in assay [11] it was over 10 µM.

`CC(C(=O)O)c1ccc(CC2CCCC2=O)cc1` (stereo unspecified) [LOXOPROFEN]: the AC50 in assay [1], in assay [2], in [3], in [4], in assay [5] and in assay [6] was over 30 µM in each case. For the same molecule, the AC50 in [7], in [8], in assay [9], in assay [10] and in [11] was over 30 µM in each case.

Regarding `C[C@H](Cc1ccc(O)c(O)c1)[C@@H](C)Cc1ccc(O)c(O)c1` [MASOPROCOL], the AC50 in assay [1] was 5.4 µM and 4.7 µM and 4.1 µM; in assay [2], over 10 µM; in assay [3] it was over 10 µM; in assay [4], over 30 µM; in assay [5], over 10 µM; in [6], over 10 µM. Also, the AC50 in [7] was 4.2 µM and 2.8 µM and 3.1 µM; in assay [8] it was over 30 µM; in assay [9] it was > 10 µM and 29 µM (2×); in [10] it was 3.4 µM and 5.4 µM and 5.2 µM; in [11], over 10 µM.

With `CCOC(=O)C1=C(C)NC(C)=C(C(=O)OC)C1c1cccc([N+](=O)[O-])c1` (stereo unspecified) [NITRENDIPINE], the concentration at half-maximal activity (AC50) in [1] is over 30 µM; in assay [2] it was over 10 µM; in assay [3], over 30 µM; in assay [4], over 10 µM; in [5] it was over 10 µM; in [6], over 10 µM. In addition, the AC50 in assay [7] was over 30 µM; in [8] it was 15.9 µM; in assay [9], over 30 µM; in assay [10] it was 32.2 µM; in [11] it was over 10 µM.

On to `C#C[C@]1(OC(C)=O)CC[C@H]2[C@@H]3CCC4=C/C(=N/O)CC[C@@H]4[C@H]3CC[C@@]21CC` [NORGESTIMATE], for which the AC50 in [1] is 11 µM; in [2] it was over 30 µM; in assay [3], over 30 µM; in assay [4], over 30 µM; in assay [5], over 30 µM; in assay [6], over 30 µM. For the same molecule, the AC50 in [7] is 13 µM; in [8] it was over 30 µM; in [9], over 30 µM; in [10] it was 10 µM; in [11], over 30 µM.

In the case of `[H]/N=C(/N)N/C(=N/[H])NCCc1ccccc1` [PHENFORMIN], the AC50 was over 30 µM in [1]; over 10 µM in [2]; over 30 µM in [3]; over 10 µM in assay [4]; 2.32 µM in assay [5]; over 30 µM in assay [6]. In addition, the half-maximal activity concentration (AC50) in [7] is over 30 µM; in assay [8], over 30 µM; in assay [9] it was over 30 µM; in [10] it was 25.2 µM; in assay [11], over 10 µM.

For the molecule `CC(N)C(O)c1ccccc1` (stereo unspecified) [PHENYLPROPANOLAMINE], the concentration at half-maximal activity (AC50) was over 30 µM in [1]; over 10 µM in assay [2]; over 30 µM in [3]; over 10 µM in assay [4]; over 10 µM in [5]; over 10 µM in assay [6]. The AC50 in assay [7] was over 30 µM; in assay [8], over 30 µM; in assay [9], over 30 µM; in [10], over 30 µM; in assay [11], over 10 µM.

(Values after ChEMBL document CHEMBL5291721, “A preclinical secondary pharmacology resource illuminates target-adverse drug reaction associations of marketed drugs” (Nat Commun, 2023).)
